Patent US7297817B2, “Thio-substituted arylmethanesulfinyl derivatives” (Cephalon France, priority 2004, dated 2007)

Columns and labels:
Wistar rats = experiment: Evaluation of Wake Promoting Activity in Rats (EEG/EMG sleep/wake scoring); format: in vivo, rat; settings: i.p. route, 100 mg/kg; for Mean AUC0–3h, test compound: first 3 hrs following dosing, n = 8 rats; for wakefulness compared to vehicle-treated animals: p<0.05 vs control groups
Method: The methodology utilized for evaluating wake promoting activity of test compounds is based on that described by Edgar and Seidel, Journal of Pharmacology and Experimental Therapeutics, 283:757-769, 1997, and incorporated herein in its entirety by reference.
Animal Surgery. Adult, male Wistar rats (275-320 g from Charles River Laboratories, Wilmington, Mass.) were anesthetized (Nembutal, 45 mg/kg, ip.) and surgically prepared with implants for recording of chronic EEG (encephalographic) and EMG (electromyographic) recording. The EEG implants were made from commercially available components (Plastics One, Roanoke, Va.). EEG signals were recorded from stainless steel screw electrodes: 2 frontal (+3.0 mm AP from bregma, ±2.0 mm ML), and 2 occipital (−4.0 mm AP from bregma, ±2.0 mm ML). Two Teflon-coated stainless steel wires were positioned under the nuchal trapezoid muscles for EMG recording. All electrode leads were inserted into a connector pedestal and the pedestal affixed to the skull by application dental acrylic. Antibiotic was administered post surgically and antibiotic cream was applied to the wound edges to prevent infection. At least one week elapsed between surgery and recording.
Recording environment. Postsurgically, rats were housed in pairs in an isolated room. Food and water were available ad libitum, ambient temperature was 21° C., and humidity was 55%. At least 24 hrs prior to recording, they were placed in Nalgene containers (31×31×31 cm) with a wire-grid top, and entry to the room was prohibited during the day of recording except for dosing. The containers were placed on a rack with two shelves, 4 containers per shelf. Fluorescent overhead room lights were set to a 24 hr. light/dark cycle (on at 7 AM, off at 7 PM). Light levels inside the containers were 38 and 25 lux for the top and bottom shelves respectively. Background white-noise (68 db inside the containers) was present in the room to mask ambient sounds.
Data acquisition. EEG and EMG signals were led via cables to a commutator (Plastics One) and then to pre-amplifiers (model 1700, A-M Systems, Carlsborg, Wash.). EEG and EMG signals were amplified (10K and 1K respectively) and bandpass filtered between 0.3 and 500 Hz for EEG and between 10 and 500 Hz for EMG. […] On the day of dosing, data was recorded for 6 to 10 hours beginning at 11 AM.
Drug administration and study design. Compounds were evaluated on groups of from 4 to 8 rats carried out over one or two separate test sessions. […]
Sleep/wake scoring. Sleep and wake activity were determined manually using ICELUS software. […]

## NC(=O)C[S+]([O-])Cc1ccccc1COc1ccccc1 (centres unmarked)
other
  melting point: 153 to 154 °C

## CC(=O)N1CCN(C(=O)C[S+]([O-])Cc2ccc(Oc3ccc(Cl)c(Cl)c3)cc2)CC1 (centres unmarked) [Example 22, 1-(4-Acetyl-piperazin-1-yl)-2-[4-(3,4-dichloro-phenoxy)-phenylmethanesulfinyl]-ethanone]
Wistar rats
  Mean AUC0–3h, test compound: 162.7 % of waiking time × hr
  wakefulness compared to vehicle-treated animals: significantly greated wakefulness

## NC(=O)C[S+]([O-])Cc1ccccc1NC(=O)c1ccc(Cl)cc1 (centres unmarked) [Example 113, N-(2-carbamoylmethanesulfinylmethyl-phenyl)-4-chloro-benzamide]
Wistar rats
  Mean AUC0–3h, test compound: 99.0 % of waiking time × hr
  wakefulness compared to vehicle-treated animals: significantly greated wakefulness
